These results are taken from US20170349638A1, “COMPANION DIAGNOSTIC TOOL FOR PEPTIDOMIMETIC MACROCYCLES” (AILERON Therapeutics, Inc., priority 2016, published 2017).

Where a SMILES comes first, the peptide text is derived from it. Bridges are numbered along the chain shown (N, C = ends). [ ]: non-standard residue; d: D form. R8 = C=CCCCCCC[C@@](C)(N)C(=O)O; S5 = C=CCCC[C@](C)(N)C(=O)O; Nle = CCCC[C@H](N)C(=O)O

A short description of this data set: Circular dichroism (CD) analysis of alpha-helicity. It is filed as physicochemical. The following applies: 222 nm; for Molar Ellipticity 50% TFE (222 in 50% TFE): CD buffer with 50% TFE; for Molar Ellipticity 50% TFE (222 in 50% TFE) / Molar Ellipticity Benign (222 in 0% TFE): 0.05 mg/ml, 4° C.; for Molar Ellipticity Benign (222 in 0% TFE): benign CD buffer (20 mM phosphoric acid, pH 2); for Molar Ellipticity TFE − Molar Ellipticity Benign: difference 50% TFE minus benign buffer.

Protocol: A Peltier temperature controller was used to maintain temperature control of the optical cell. Results are expressed as mean molar ellipticity [θ] […] Peptide concentrations were determined by amino acid analysis. Stock solutions of peptides were prepared in benign CD buffer (20 mM phosphoric acid, pH 2). The stocks were used to prepare peptide solutions of 0.05 mg/ml in either benign CD buffer or CD buffer with 50% trifluoroethanol (TFE) for analyses in a 10 mm pathlength cell. […] The average of six scans was reported.

On to `CC(=O)N[C@@H](CC(C)C)C(=O)N[C@H](C(=O)N[C@@H](Cc1ccccc1)C(=O)N[C@]1(C)CCCCCCC=CCCC[C@@](C)(C(=O)N[C@@H](C)C(=O)N[C@@H](C)C(=O)N[C@@H](C)C(=O)N[C@H](C)C(N)=O)NC(=O)[C@H](CC(C)C)NC(=O)[C@H](CCC(N)=O)NC(=O)[C@H](C)NC(=O)[C@H](Cc2c[nH]c3ccccc23)NC(=O)[C@H](Cc2ccc(O)cc2)NC(=O)[C@H](C)NC1=O)[C@@H](C)O` (single isomer, unassigned) [compound 230], for which the “Molar Ellipticity 50% TFE (222 in 50% TFE)” value is given as −17974 deg cm^2dmol^−1, the “Molar Ellipticity Benign (222 in 0% TFE)” value is listed as −213.2 deg cm^2dmol^−1 and the “Molar Ellipticity TFE − Molar Ellipticity Benign” value is given as −17760.8 deg cm^2dmol^−1.
On the same counts, the results for `CC(=O)N[C@@H](CC(C)C)C(=O)N[C@H](C(=O)N[C@@H](Cc1ccccc1)C(=O)N[C@]1(C)CCCCCCC=CCCC[C@@](C)(C(=O)N[C@@H](CO)C(=O)N[C@@H](C)C(=O)N[C@@H](Cc2ccccc2)C(N)=O)NC(=O)[C@H](CC(C)C)NC(=O)[C@H](CCC(N)=O)NC(=O)[C@H](C)NC(=O)[C@H](Cc2c[nH]c3ccccc23)NC(=O)[C@H](Cc2ccc(O)cc2)NC(=O)[C@H](C)NC1=O)[C@@H](C)O` [compound 7] (Ac-LTF[R8]AYWAQL[S5]SAF-NH2; staple 4-11) are −19921.4 deg cm^2dmol^−1, 124 deg cm^2dmol^−1 and −20045.4 deg cm^2dmol^−1.
For `CC(=O)N[C@@H](CC(C)C)C(=O)N[C@H](C(=O)N[C@@H](Cc1ccccc1)C(=O)N[C@]1(C)CCCCCCC=CCCC[C@@](C)(C(=O)N[C@@H](CO)C(=O)N[C@@H](C)C(=O)N[C@@H](C)C(N)=O)NC(=O)[C@H](CC(C)C)NC(=O)[C@H](CCC(N)=O)NC(=O)[C@H](C)NC(=O)[C@H](Cc2c[nH]c3ccccc23)NC(=O)[C@H](Cc2ccc(O)cc2)NC(=O)[C@H](C)NC1=O)[C@@H](C)O` [compound 11] (Ac-LTF[R8]AYWAQL[S5]SAA-NH2; staple 4-11) the same measures were −16623.4 deg cm^2dmol^−1, −398.2 deg cm^2dmol^−1 and 16225.2 deg cm^2dmol^−1.
On to `CCCC[C@H](NC(=O)[C@H](CCC(N)=O)NC(=O)[C@H](CCC(N)=O)NC(=O)[C@]1(C)CCCC=CCCCCCC[C@@](C)(NC(=O)[C@H](Cc2ccccc2)NC(C)=O)C(=O)N[C@@H](C)C(=O)N[C@@H](Cc2ccc(O)cc2)C(=O)N[C@@H](Cc2c[nH]c3ccccc23)C(=O)N[C@@H]([C@@H](C)O)C(=O)N[C@@H](C)C(=O)N[C@@H](CC(C)C)C(=O)N1)C(=O)N[C@@H](C(N)=O)C(C)C` [compound 41] (Ac-F[R8]AYWTAL[S5]QQ[Nle][dV]-NH2; staple 2-9), for which the “Molar Ellipticity 50% TFE (222 in 50% TFE)” value is −21319.4 deg cm^2dmol^−1, the “Molar Ellipticity Benign (222 in 0% TFE)” value is on record as −909 deg cm^2dmol^−1 and the “Molar Ellipticity TFE − Molar Ellipticity Benign” value is given as 20410.4 deg cm^2dmol^−1.
On the same counts, the results for `CC(=O)N[C@@H](CC(C)C)C(=O)N[C@H](C(=O)N[C@@H](Cc1ccccc1)C(=O)N[C@]1(C)CCCCCCC=CCCC[C@@](C)(C(=O)N[C@@H](Cc2c[nH]cn2)C(=O)N[C@@H](Cc2c[nH]cn2)C(=O)N[C@@H](CC(C)C)C(=O)N[C@H](C)C(N)=O)NC(=O)[C@H](CC(C)C)NC(=O)[C@H](CCC(N)=O)NC(=O)[C@H](C)NC(=O)[C@H](Cc2c[nH]c3ccccc23)NC(=O)[C@H](Cc2ccc(O)cc2)NC(=O)[C@H](C)NC1=O)[C@@H](C)O` [compound 43] (Ac-LTF[R8]AYWAQL[S5]HHL[dA]-NH2; staple 4-11) are −18247.4 deg cm^2dmol^−1, −15334.5 deg cm^2dmol^−1 and 2912.9 deg cm^2dmol^−1.
